Here are results for ten molecules from US10206394B2, “Herbicidal compounds” (Syngenta Participations AG, priority 2014, dated 2019).

Where two headings read alike, the source gives them in different places.

What all share (test): Glasshouse assay for herbicidal activity (pre- and post-emergence), percentage phytotoxicity
Common to all, as to type: in vivo

One experiment concerns Lolium perenne (LOLPE). To be noted: Lolium perenne. In a few lines:
(§1)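 Damage was rated visually as percent phytotoxicity, 100% meaning total kill, 20 days after pre-emergence application (made one day post-sowing) or 15 days after post-emergence application (made about 12 days post-sowing). Plants were grown under 16 h light, 65% humidity, warm species 24/18° C, cool 20/16° C.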

In experiment [1] the test system is Alopecurus myosuroides (ALOMY). To be noted: Alopecurus myosuroides. The gist of the method:
as §1

Experiment [2] deals with Echinochloa crus-galli (ECHCG). The following applies: Echinochloa crus-galli. In a few lines: as §1
Another experiment deals with Avena fatua (AVEFA). The following applies: Avena fatua. The gist of the method: as §1
Setting [3] is: post-emergence, 360 h, 250 g/ha, post-emergence, 15 DAA, visual assessment (100%=total damage, 0%=no damage), read-out: Post-emergence herbicidal activity (percentage phytotoxicity) LOLPE POST.
Setting [4] is: pre-emergence, 480 h, 250 g/ha, pre-emergence, 20 DAA, visual assessment (100%=total damage, 0%=no damage), read-out: Pre-emergence herbicidal activity (percentage phytotoxicity) LOLPE PRE.
Setting [5] is: post-emergence, 360 h, 250 g/ha, post-emergence, 15 DAA, visual assessment (100%=total damage, 0%=no damage), read-out: Post-emergence herbicidal activity (percentage phytotoxicity) ALOMY POST.
Where [6] appears, read: pre-emergence, 480 h, 250 g/ha, pre-emergence, 20 DAA, visual assessment (100%=total damage, 0%=no damage), read-out: Pre-emergence herbicidal activity (percentage phytotoxicity) ALOMY PRE.
The mark [7] stands for this setting: post-emergence, 360 h, 250 g/ha, post-emergence, 15 DAA, visual assessment (100%=total damage, 0%=no damage), read-out: Post-emergence herbicidal activity (percentage phytotoxicity) ECHCG POST.
The mark [8] stands for this setting: pre-emergence, 480 h, 250 g/ha, pre-emergence, 20 DAA, visual assessment (100%=total damage, 0%=no damage), read-out: Pre-emergence herbicidal activity (percentage phytotoxicity) ECHCG PRE.
The mark [9] stands for this setting: post-emergence, 360 h, 250 g/ha, post-emergence, 15 DAA, visual assessment (100%=total damage, 0%=no damage), read-out: Post-emergence herbicidal activity (percentage phytotoxicity) AVEFA POST.
[10] abbreviates: pre-emergence, 480 h, 250 g/ha, pre-emergence, 20 DAA, visual assessment (100%=total damage, 0%=no damage), read-out: Pre-emergence herbicidal activity (percentage phytotoxicity) AVEFA PRE.
Where [11] appears, read: post-emergence, 360 h, Rate 250 g/ha, post-emergence, assessed visually 15 DAA, 100%=total damage, 0%=no damage, read-out: Post-emergence herbicidal activity (percentage phytotoxicity) LOLPE POST.
Where [12] appears, read: pre-emergence, 480 h, Rate 250 g/ha, pre-emergence, assessed visually 20 DAA, 100%=total damage, 0%=no damage, read-out: Pre-emergence herbicidal activity (percentage phytotoxicity) LOLPE PRE.
[13] abbreviates: post-emergence, 360 h, Rate 250 g/ha, post-emergence, assessed visually 15 DAA, 100%=total damage, 0%=no damage, read-out: Post-emergence herbicidal activity (percentage phytotoxicity) ALOMY POST.
Where [14] appears, read: pre-emergence, 480 h, Rate 250 g/ha, pre-emergence, assessed visually 20 DAA, 100%=total damage, 0%=no damage, read-out: Pre-emergence herbicidal activity (percentage phytotoxicity) ALOMY PRE.
Where [15] appears, read: post-emergence, 360 h, Rate 250 g/ha, post-emergence, assessed visually 15 DAA, 100%=total damage, 0%=no damage, read-out: Post-emergence herbicidal activity (percentage phytotoxicity) ECHCG POST.
Setting [16] is: pre-emergence, 480 h, Rate 250 g/ha, pre-emergence, assessed visually 20 DAA, 100%=total damage, 0%=no damage, read-out: Pre-emergence herbicidal activity (percentage phytotoxicity) ECHCG PRE.
The mark [17] stands for this setting: post-emergence, 360 h, Rate 250 g/ha, post-emergence, assessed visually 15 DAA, 100%=total damage, 0%=no damage, read-out: Post-emergence herbicidal activity (percentage phytotoxicity) AVEFA POST.
[18] abbreviates: pre-emergence, 480 h, Rate 250 g/ha, pre-emergence, assessed visually 20 DAA, 100%=total damage, 0%=no damage, read-out: Pre-emergence herbicidal activity (percentage phytotoxicity) AVEFA PRE.
[19] abbreviates: post-emergence, 360 h, Rate 250 g/ha, post-emergence, visual assessment 15 DAA, 100%=total damage, 0%=no damage, read-out: Post-emergence herbicidal activity (percentage phytotoxicity) LOLPE POST.
[20] abbreviates: pre-emergence, 480 h, Rate 250 g/ha, pre-emergence, visual assessment 20 DAA, 100%=total damage, 0%=no damage, read-out: Pre-emergence herbicidal activity (percentage phytotoxicity) LOLPE PRE.
Setting [21] is: post-emergence, 360 h, Rate 250 g/ha, post-emergence, visual assessment 15 DAA, 100%=total damage, 0%=no damage, read-out: Post-emergence herbicidal activity (percentage phytotoxicity) ALOMY POST.
The mark [22] stands for this setting: pre-emergence, 480 h, Rate 250 g/ha, pre-emergence, visual assessment 20 DAA, 100%=total damage, 0%=no damage, read-out: Pre-emergence herbicidal activity (percentage phytotoxicity) ALOMY PRE.
Where [23] appears, read: post-emergence, 360 h, Rate 250 g/ha, post-emergence, visual assessment 15 DAA, 100%=total damage, 0%=no damage, read-out: Post-emergence herbicidal activity (percentage phytotoxicity) ECHCG POST.
The mark [24] stands for this setting: pre-emergence, 480 h, Rate 250 g/ha, pre-emergence, visual assessment 20 DAA, 100%=total damage, 0%=no damage, read-out: Pre-emergence herbicidal activity (percentage phytotoxicity) ECHCG PRE.
The mark [25] stands for this setting: post-emergence, 360 h, Rate 250 g/ha, post-emergence, visual assessment 15 DAA, 100%=total damage, 0%=no damage, read-out: Post-emergence herbicidal activity (percentage phytotoxicity) AVEFA POST.
Where [26] appears, read: pre-emergence, 480 h, Rate 250 g/ha, pre-emergence, visual assessment 20 DAA, 100%=total damage, 0%=no damage, read-out: Pre-emergence herbicidal activity (percentage phytotoxicity) AVEFA PRE.

On to `C#Cc1cccc(CNC(=O)CC2CC(=O)C(c3c(C)cc(C)cc3C)C2=O)c1` (centres unmarked) [Compound B86], for which the pest or weed control at 250 g/ha in the experiment with Lolium perenne (LOLPE) (setting [3]) stood at 100%; in the experiment with Lolium perenne (LOLPE) (setting [4]), 90%; in experiment [1] (setting [5]) it was 70%; in experiment [1] (setting [6]) it was 70%; in experiment [2] (setting [7]) it was 90%; in experiment [2] (setting [8]) it was 80%. Besides, the pest or weed control at 250 g/ha in the experiment with Avena fatua (AVEFA) (setting [9]) was determined as 100%; in the experiment on Avena fatua (AVEFA) (setting [10]) it was 60%.

For `Cc1cc(C)c(C2C(=O)CC(CC(=O)NCc3nc4ccccc4s3)C2=O)c(C)c1` (centres unmarked) [Compound A100], the pest or weed control at 250 g/ha worked out at 70% in the experiment on Lolium perenne (LOLPE) (setting [11]); 80% in the experiment with Lolium perenne (LOLPE) (setting [12]); 70% in experiment [1] (setting [13]); 90% in experiment [1] (setting [14]); 20% in experiment [2] (setting [15]); 20% in experiment [2] (setting [16]). Also, the pest or weed control at 250 g/ha in the experiment on Avena fatua (AVEFA) (setting [17]) and with Avena fatua (AVEFA) (setting [18]) was 0% throughout.

For `C#CCN(C)C(=O)CC1CC(=O)C(c2c(C)cc(-c3ccc(F)cn3)cc2C)C1=O` (centres unmarked) [Compound B394], the pest or weed control at 250 g/ha was 90% with Lolium perenne (LOLPE) (setting [19]); 100% in the experiment on Lolium perenne (LOLPE) (setting [20]); 100% in experiment [1] (setting [21]); 100% in experiment [1] (setting [22]); 100% in experiment [2] (setting [23]); 100% in experiment [2] (setting [24]). For the same molecule, the pest or weed control at 250 g/ha in the experiment with Avena fatua (AVEFA) (setting [25]) and in the experiment with Avena fatua (AVEFA) (setting [26]) was 100% each time.

In the case of `Cc1cc(C)c(C2C(=O)CC(CC(=O)N3CCCC3)C2=O)c(C)c1` (centres unmarked) [Compound A162], the pest or weed control at 250 g/ha in the experiment on Lolium perenne (LOLPE) (setting [11]) stood at 100%; in the experiment on Lolium perenne (LOLPE) (setting [12]), 100%; in experiment [1] (setting [13]), 90%; in experiment [1] (setting [14]), 70%; in experiment [2] (setting [15]), 90%; in experiment [2] (setting [16]) it was 100%. Further, the pest or weed control at 250 g/ha worked out at 90% in the experiment on Avena fatua (AVEFA) (setting [17]) and 70% with Avena fatua (AVEFA) (setting [18]).

On to `CC#Cc1cc(C)c(C2C(=O)CC(CC(=O)NC3CC3)C2=O)c(C)c1` (centres unmarked) [Compound A32], for which the pest or weed control at 250 g/ha in the experiment on Lolium perenne (LOLPE) (setting [11]) was 100%; with Lolium perenne (LOLPE) (setting [12]), 90%; in experiment [1] (setting [13]), 100%; in experiment [1] (setting [14]), 70%; in experiment [2] (setting [15]) it was 100%; in experiment [2] (setting [16]), 100%. In addition, the pest or weed control at 250 g/ha is 100% with Avena fatua (AVEFA) (setting [17]) and 80% with Avena fatua (AVEFA) (setting [18]).

On to `Cc1cc(C)c(C2C(=O)CC(CC(=O)NCc3ncccc3Cl)C2=O)c(C)c1` (centres unmarked) [Compound A107], for which the pest or weed control at 250 g/ha came out at 80% in the experiment with Lolium perenne (LOLPE) (setting [11]); 90% with Lolium perenne (LOLPE) (setting [12]); 80% in experiment [1] (setting [13]); 80% in experiment [1] (setting [14]); 70% in experiment [2] (setting [15]); 80% in experiment [2] (setting [16]). Moreover, the pest or weed control at 250 g/ha is 90% with Avena fatua (AVEFA) (setting [17]) and 10% in the experiment with Avena fatua (AVEFA) (setting [18]).

With `Cc1cc(C)c(C2C(=O)CC(CC(=O)NC(C#N)C3CC3)C2=O)c(C)c1` (centres unmarked) [Compound B58], the pest or weed control at 250 g/ha is 50% with Lolium perenne (LOLPE) (setting [3]); 20% in the experiment on Lolium perenne (LOLPE) (setting [4]); 50% in experiment [1] (setting [5]); 10% in experiment [1] (setting [6]); 20% in experiment [2] (setting [7]); 20% in experiment [2] (setting [8]). The pest or weed control at 250 g/ha with Avena fatua (AVEFA) (setting [9]) was 70%; with Avena fatua (AVEFA) (setting [10]), 40%.

With `CCCCNC(=O)CC1CC(=O)C(c2c(C)cc(-c3ncc(F)cn3)cc2C)C1=O` (centres unmarked) [Compound B111], the pest or weed control at 250 g/ha turned out to be 100% in the experiment on Lolium perenne (LOLPE) (setting [3]); 100% in the experiment on Lolium perenne (LOLPE) (setting [4]); 100% in experiment [1] (setting [5]); 70% in experiment [1] (setting [6]); 100% in experiment [2] (setting [7]); 100% in experiment [2] (setting [8]). Moreover, the pest or weed control at 250 g/ha turned out to be 100% in the experiment with Avena fatua (AVEFA) (setting [9]) and 90% in the experiment on Avena fatua (AVEFA) (setting [10]).

With `Cc1cc(C)c(C2C(=O)CC(C(C)C(=O)NC(C)(C)C)C2=O)c(C)c1` (centres unmarked) [Compound A164], the pest or weed control at 250 g/ha worked out at 60% with Lolium perenne (LOLPE) (setting [11]); 60% with Lolium perenne (LOLPE) (setting [12]); 70% in experiment [1] (setting [13]); 70% in experiment [1] (setting [14]); 70% in experiment [2] (setting [15]); 70% in experiment [2] (setting [16]). Moreover, the results for the pest or weed control at 250 g/ha in the experiment on Avena fatua (AVEFA) (setting [17]) and in the experiment on Avena fatua (AVEFA) (setting [18]) were 70% and 10%, respectively.

Consider `C#CC(C)(C)NC(=O)CC1CC(=O)C(c2c(C)cc(-c3ncc(Cl)cn3)cc2C)C1=O` (centres unmarked) [Compound B343], for which the pest or weed control at 250 g/ha (in the experiment with Lolium perenne (LOLPE) (setting [19]); with Lolium perenne (LOLPE) (setting [20]); in experiment [1] (setting [21]); in experiment [1] (setting [22]); in experiment [2] (setting [23]); in experiment [2] (setting [24])) was 100% each time. For the same molecule, the pest or weed control at 250 g/ha stood at 100% in the experiment on Avena fatua (AVEFA) (setting [25]) and 90% with Avena fatua (AVEFA) (setting [26]).
